ChEMBL document CHEMBL3217477, “Synthesis and biological evaluation of substituted - and -2,3-dihydrofuran naphthoquinones as potent anticandidal agents” (Medchemcomm, 2010)
≈ marks a conversion by molar mass, not a printed value.

Tests used:
Candida parapsilosis [1] = assay: Antifungal activity against Candida parapsilosis assessed as growth inhibition at 250 ug/mL after 24 hrs by hole plate diffusion method; type: functional; conditions: Lodderomyces parapsilosis, read-out: IZ
Candida dubliniensis [2] = assay: Antifungal activity against Candida dubliniensis assessed as growth inhibition at 250 ug/mL after 24 hrs by hole plate diffusion method; type: functional; conditions: read-out: IZ
Candida tropicalis [3] = assay: Antifungal activity against Candida tropicalis assessed as growth inhibition at 250 ug/mL after 24 hrs by hole plate diffusion method; type: functional; conditions: read-out: IZ
Candida tropicalis [4] = assay: Antifungal activity against Candida tropicalis assessed as growth inhibition after 24 hrs by microbroth dilution method; type: functional
Pichia kudriavzevii [5] = assay: Antifungal activity against Candida krusei assessed as growth inhibition at 250 ug/mL after 24 hrs by hole plate diffusion method; type: functional; conditions: read-out: IZ
Kluyveromyces marxianus [6] = assay: Antifungal activity against Candida kefyr assessed as growth inhibition after 24 hrs by microbroth dilution method; type: functional
Candida albicans [7] = assay: Antifungal activity against Candida albicans assessed as growth inhibition after 24 hrs by microbroth dilution method; type: functional
Pichia kudriavzevii [8] = assay: Antifungal activity against Candida krusei assessed as growth inhibition after 24 hrs by microbroth dilution method; type: functional
Candida albicans [9] = assay: Antifungal activity against Candida albicans assessed as growth inhibition at 250 ug/mL after 24 hrs by hole plate diffusion method; type: functional; conditions: read-out: IZ
[10] = Cytotoxicity against mouse NIH/3T3 cells assessed as dead cells at 12.5 ug/mL after 72 hrs by Alamar Blue assay relative to control; type: cell-based; conditions: nih3t3, 72 h
Candida parapsilosis [11] = assay: Antifungal activity against Candida parapsilosis assessed as growth inhibition after 24 hrs by microbroth dilution method; type: functional; conditions: Lodderomyces parapsilosis
Candida dubliniensis [12] = assay: Antifungal activity against Candida dubliniensis assessed as growth inhibition after 24 hrs by microbroth dilution method; type: functional
Kluyveromyces marxianus [13] = assay: Antifungal activity against Candida kefyr assessed as growth inhibition at 250 ug/mL after 24 hrs by hole plate diffusion method; type: functional; conditions: read-out: IZ
[14] = Hemolytic activity in Swiss mouse erythrocytes at 50 ug/mL after 1 hr by spectrophotometric analysis relative to control; type: ADME, cell-based, Erythrocyte; conditions: read-out: Activity
Candida albicans [15] = assay: Antifungal activity against Candida albicans ATCC 90028 assessed as growth inhibition after 24 hrs by microbroth dilution method; type: functional; conditions: ATCC 90028, 24 h

Row | Compound | zone of inhibition at 250 µg/mL (Candida parapsilosis [1]) | zone of inhibition at 250 µg/mL (Candida dubliniensis [2]) | zone of inhibition at 250 µg/mL (Candida tropicalis [3]) | MIC (Candida tropicalis [4]) | zone of inhibition at 250 µg/mL (Pichia kudriavzevii [5]) | MIC (Kluyveromyces marxianus [6]) | MIC (Candida albicans [7]) | MIC (Pichia kudriavzevii [8]) | zone of inhibition at 250 µg/mL (Candida albicans [9]) | mortality [10] | MIC (Candida parapsilosis [11]) | MIC (Candida dubliniensis [12]) | zone of inhibition at 250 µg/mL (Kluyveromyces marxianus [13]) | hemolysis at 1 h, 50 ug/mL [14] | MIC (Candida albicans [15])
1 | Cc1ccc(C2CC3=C(O2)c2ccccc2C(=O)C3=O)cc1 (stereo not given) | 0 mm | 6.44 mm | 2.26 mm | 43.1 µM (≈ 12.5 µg/mL) | 5.77 mm | 5.39 µM (≈ 1.56 µg/mL) | 10.8 µM (≈ 3.13 µg/mL) | 5.39 µM (≈ 1.56 µg/mL) | 0.39 mm | 0% | 10.8 µM (≈ 3.13 µg/mL) | 2.69 µM (≈ 0.781 µg/mL) | 0 mm | 5.28% | 10.8 µM (≈ 3.13 µg/mL)
2 | O=C1C(=O)c2ccccc2C2=C1CC(c1ccc(Cl)cc1)O2 (stereo not given) | 6.11 mm | 9.01 mm | 2.21 mm | 20.1 µM (≈ 6.25 µg/mL) | 5.65 mm | 5.02 µM (≈ 1.56 µg/mL) | 40.2 µM (≈ 12.5 µg/mL) | 40.2 µM (≈ 12.5 µg/mL) | 1.5 mm | 0% | 10.1 µM (≈ 3.12 µg/mL) | 40.2 µM (≈ 12.5 µg/mL) | 1.96 mm | -1.51% | 80.5 µM (≈ 25 µg/mL)
3 | O=C1C(=O)c2ccccc2C2=C1CC(c1ccc(F)cc1)O2 (stereo not given) | 8.12 mm | 1.7 mm | 8.59 mm | 42.5 µM (≈ 12.5 µg/mL) | 9.8 mm | 42.5 µM (≈ 12.5 µg/mL) | 42.5 µM (≈ 12.5 µg/mL) | 10.6 µM (≈ 3.12 µg/mL) | 1.37 mm | 0% | 42.5 µM (≈ 12.5 µg/mL) | 42.5 µM (≈ 12.5 µg/mL) | 8.96 mm | -0.202% | 85 µM (≈ 25 µg/mL)
4 | O=C1C(=O)c2ccccc2C2=C1CC(c1ccc(Br)cc1)O2 (stereo not given) | 7.75 mm | 9.23 mm | 0 mm | 8.79 µM (≈ 3.12 µg/mL) | 11.3 mm | 4.39 µM (≈ 1.56 µg/mL) | 35.2 µM (≈ 12.5 µg/mL) | 4.39 µM (≈ 1.56 µg/mL) | 6.17 mm | 0% | 8.79 µM (≈ 3.12 µg/mL) | 2.19 µM (≈ 0.778 µg/mL) | 8.68 mm | 4.59% | 70.4 µM (≈ 25 µg/mL)
